# Assay results as given in ChEMBL document CHEMBL1156817, “Fructose-1,6-bisphosphatase Inhibitors. 2. Design, synthesis, and structure-activity relationship of a series of phosphonic acid containing benzimidazoles that function as 5'-adenosinemonophosphate (AMP) mimics” (J Med Chem, 2010).
# pEC50, pIC50: −log10 of the molar value. Activity calls are given as the source filed them. The rule behind the calls is not given here.
# Key:
# [1] = biological target: T1, ATP-dependent 6-phosphofructokinase, muscle type (Homo sapiens, UniProt P08237); assay: Activation of phosphofructokinase AMP binding site
# T1 sequence (P08237 whole entry): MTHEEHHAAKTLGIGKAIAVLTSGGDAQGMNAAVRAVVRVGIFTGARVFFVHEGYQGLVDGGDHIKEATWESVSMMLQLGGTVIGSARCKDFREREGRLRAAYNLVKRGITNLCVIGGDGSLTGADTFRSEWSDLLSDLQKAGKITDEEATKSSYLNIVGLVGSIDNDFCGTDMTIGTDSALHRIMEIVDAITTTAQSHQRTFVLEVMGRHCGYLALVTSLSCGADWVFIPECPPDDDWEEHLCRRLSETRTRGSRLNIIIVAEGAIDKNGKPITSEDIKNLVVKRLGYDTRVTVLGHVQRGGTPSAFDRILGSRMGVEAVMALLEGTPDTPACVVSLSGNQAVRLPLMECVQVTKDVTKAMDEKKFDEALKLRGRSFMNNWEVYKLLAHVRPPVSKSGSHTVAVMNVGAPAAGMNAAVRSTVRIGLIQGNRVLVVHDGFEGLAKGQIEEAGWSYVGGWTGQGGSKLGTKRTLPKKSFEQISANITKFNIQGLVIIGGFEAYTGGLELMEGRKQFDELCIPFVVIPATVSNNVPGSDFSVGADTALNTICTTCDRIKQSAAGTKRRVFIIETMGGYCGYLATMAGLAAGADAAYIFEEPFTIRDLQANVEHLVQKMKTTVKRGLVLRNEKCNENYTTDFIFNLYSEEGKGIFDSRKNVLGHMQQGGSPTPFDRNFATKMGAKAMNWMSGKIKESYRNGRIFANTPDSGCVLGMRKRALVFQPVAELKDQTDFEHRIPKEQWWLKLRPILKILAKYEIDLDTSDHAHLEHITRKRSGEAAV
# Rattus norvegicus [2] = assay: Reduction of blood glucose level in 5 hrs fasted ZDF rat at 10 mg/kg, iv administered every 1 hr for 6 hrs; type: functional, organism-based; set-up: dose 10 mg/kg
# Hepatocyte [3] = assay: Inhibition of glucose production in rat primary hepatocytes at 10 uM; type: functional, cell-based
# Rattus norvegicus [4] = assay: Reduction of blood glucose level in 18 hrs fasted normal Sprague-Dawley rat at 10 mg/kg, iv after 1 hr interval; type: functional; set-up: scale not given: the % may be the effect or the level left
# Hepatocyte [5] = assay: Inhibition of glucose production in rat primary hepatocytes at 100 uM; type: functional, cell-based
# [6] = Activation of glycogen phosphorylase AMP binding site
# Adenosine kinase = Adenosine kinase (Homo sapiens, UniProt P55263); assay: Inhibition of adenosine kinase AMP binding site
# Sequence of Adenosine kinase (P55263 whole entry): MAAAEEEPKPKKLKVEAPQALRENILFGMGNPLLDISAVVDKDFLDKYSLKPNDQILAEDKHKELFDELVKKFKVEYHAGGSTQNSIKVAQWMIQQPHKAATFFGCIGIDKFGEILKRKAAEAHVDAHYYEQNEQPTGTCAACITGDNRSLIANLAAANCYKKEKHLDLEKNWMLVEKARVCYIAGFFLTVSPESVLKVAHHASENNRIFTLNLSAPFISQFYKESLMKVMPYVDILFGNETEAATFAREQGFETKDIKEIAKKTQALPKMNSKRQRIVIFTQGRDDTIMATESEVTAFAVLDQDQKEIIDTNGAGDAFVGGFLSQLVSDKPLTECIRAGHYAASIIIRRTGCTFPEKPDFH
# [7] = Oral bioavailability in 18 hrs fasted normal Sprague-Dawley rat up to 100 mg/kg by urinary excretion assay; type: ADME, organism-based; conditions: urine
# [8] = Inhibition of adenylate kinase AMP binding site
smiles,measurement,setting,value
CCc1cc(F)c(N)c2nc(-c3ccc(P(=O)(O)O)o3)n(CC(C)C)c12,pEC50,[1],< 4.00
same,Activity,Rattus norvegicus [2],Active
same,Activity,Hepatocyte [3],Active
same,Activity,Rattus norvegicus [4],64%
same,Activity,Hepatocyte [5],Active
same,pEC50,[6],< 4.00
same,pIC50,Adenosine kinase,< 4.00
same,bioavailability,[7],1%
same,pIC50,[8],< 4.00
